A short description of series [1]: Stability test (storage at 70° C., 1 bar, content by HPLC). Type of series: physicochemical. As for the experimental part: The thermal decomposition of the compounds of the general formula I and II has been investigated in a stability test. […]
The substances were stored at 70° C., 1 bar. Measurements were in HPLC % areas

Series [2] in a line: Crystallinity assessed by Debye-Scherrer photographs. The class given is physicochemical. As to conditions: isolated solid. The text has this: The crystallinity of the samples has been assessed on the basis of Debye-Scherrer photographs.

As to `N=C(N)c1ccc(CNC(=O)[C@@H]2C=CCN2C(=O)[C@@H](CC2CCCCC2)NCC(=O)O)cn1.O=C1NS(=O)(=O)c2ccccc21` [Saccharin salt, N-((Hydroxycarbonyl)methylene)-(R)-cyclohexylalanyl-(S)-3,4-dehydroproline 6-Amidino-3-picolinylamide Saccharinate], the “Stability on storage in an open vessel (relative content by HPLC)” value (from here on “Stability … (relative content by HPLC)”) in series [1] (0 days) worked out at 100 HPLC % areas; in series [1] (7 days) it was 100 HPLC % areas; in series [1] (14 days), 101 HPLC % areas. Also, the “Debye-Scherrer photograph (crystallinity)” value (“Debye-Scherrer photograph” for short) in series [2] is reported as “crystalline”.
As for “N-((Hydroxycarbonyl)methylene)-(R)-cyclohexylalanyl-(S)-3,4-dehydroproline 6-Amidino-3-picolinylamide (Betaine) [1st Example]”, in series [2], the “Debye-Scherrer photograph” value is reported as “amorphous”.
With `CC1=CC(=O)NS(=O)(=O)O1.N=C(N)c1ccc(CNC(=O)[C@@H]2C=CCN2C(=O)[C@@H](CC2CCCCC2)NCC(=O)O)cn1` [Acesulfame salt, N-((Hydroxycarbonyl)methylene)-(R)-cyclohexylalanyl-(S)-3,4-dehydroproline 6-Amidino-3-picolinylamide Acesulfamate], the “Stability … (relative content by HPLC)” value in series [1] (0 days) is listed as 100 HPLC % areas; in series [1] (7 days), 96,7 HPLC % areas; in series [1] (14 days), 88,4 HPLC % areas. The “Debye-Scherrer photograph” value in series [2] was “crystalline”.
For `CC(=O)O.N=C(N)c1ccc(CNC(=O)[C@@H]2C=CCN2C(=O)[C@@H](CC2CCCCC2)NCC(=O)O)cn1` [Acetate, N-((Hydroxycarbonyl)methylene)-(R)-cyclohexylalanyl-(S)-3,4-d ehydroproline 6-Amidino-3-picolinylamide Acetate], in that order: 100 HPLC % areas, 92.6 HPLC % areas, 87.2 HPLC % areas and “amorphous”.
Turning to `N=C(N)c1ccc(CNC(=O)[C@@H]2C=CCN2C(=O)[C@@H](CC2CCCCC2)NCC(=O)O)cn1.O=C(O)/C=C/C(=O)O` [Fumarate, N-((hydroxycarbonyl)methylene)-(R)-cyclohexylalanyl-(S)-3,4-dehydroproline 6-Amidino-3-picolinylamide Fumarate], the figures for the “Stability … (relative content by HPLC)” value in series [1] (0 days), in series [1] (7 days) and in series [1] (14 days) were 100 HPLC % areas, 87.9 HPLC % areas and 87.1 HPLC % areas, respectively. Besides, the “Debye-Scherrer photograph” value in series [2] is “amorphous”.
